Measurements: patent US6511815B1, “Method for quantitating competitive binding of molecules to proteins utilizing fluorescence polarization” (priority 1996, dated 2003)

Molecular target: T1, Estrogen receptor (Homo sapiens, UniProt P03372)
T1 construct: purchased PanVera Corporation, Madison, Wis
Assay: Competitive fluorescence polarization assay, displacement of fluormone ES1 from ER by environmental compounds
Assay type: binding
Settings: 1 nM ES1, 10 nM ER, 2.5 hours at room temperature, 360/485 nm
Description: Many compounds found in the environment are know to act as natural estrogens. […] The two pesticides were tested individually and together. […] Estrogen receptor was added to each tube at a final concentration of 10 nM. The mixtures were allowed to equilibrate for 2.5 hours at room temperature and the polarization values were read 360/485 nm excitation/emission.

T1 sequence (P03372 whole entry): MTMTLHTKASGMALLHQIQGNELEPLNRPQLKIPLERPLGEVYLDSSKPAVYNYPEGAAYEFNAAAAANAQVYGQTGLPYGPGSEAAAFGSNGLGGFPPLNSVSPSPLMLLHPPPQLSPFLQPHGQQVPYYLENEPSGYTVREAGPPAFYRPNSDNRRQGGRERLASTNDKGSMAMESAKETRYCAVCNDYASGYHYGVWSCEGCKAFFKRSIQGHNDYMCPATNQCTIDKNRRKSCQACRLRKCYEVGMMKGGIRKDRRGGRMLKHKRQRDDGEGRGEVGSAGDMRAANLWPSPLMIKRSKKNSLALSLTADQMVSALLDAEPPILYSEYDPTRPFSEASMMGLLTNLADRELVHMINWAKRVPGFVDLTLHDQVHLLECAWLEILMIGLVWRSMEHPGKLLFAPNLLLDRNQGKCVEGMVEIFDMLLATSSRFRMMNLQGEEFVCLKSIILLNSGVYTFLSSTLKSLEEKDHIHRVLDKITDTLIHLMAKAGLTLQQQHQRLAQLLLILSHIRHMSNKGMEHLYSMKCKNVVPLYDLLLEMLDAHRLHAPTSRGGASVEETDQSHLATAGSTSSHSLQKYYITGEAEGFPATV

In the case of `ClC1=C(Cl)C2(Cl)C3C(Cl)C(Cl)CC3C1(Cl)C2(Cl)Cl` (stereo not shown) [chlordane], the “ability to displace fluormone ES1 binding to ER” value is reported as “effectively competed the fluormone ES1 off the estrogen receptor”.
